In patent US9221827B2, “Antimicrobial compounds and methods of making and using the same” (Melinta Therapeutics, Inc., priority 2011, dated 2015):

tested on: Escherichia coli strain ATCC25922; test: standard microdilution assay to determine minimum inhibitory concentrations (MICs); format: cell-based; details: Escherichia coli strain ATCC25922, microdilution
Procedure: The in vitro activity of the compounds of the present invention can be determined. Antimicrobial testing is typically performed to determine the minimum inhibitory concentration (MIC). Minimum inhibitory concentrations (MICs) are determined by the microdilution method in a final volume of 100 μl according to protocols outlined by The Clinical and Laboratory Standards Institute (CLSI). Performance standards for reference strains are assessed within the same experimental design to maintain quality control. See, for example, Clinical Laboratory Standards Institute: Methods for dilution antimicrobial susceptibility tests for bacteria that grow aerobically M7-A8. Approved Standard-Eighth Edition. Wayne, Pa.: CLSI; December 2008; and Clinical Laboratory Standards Institute: Performance Standards for Antimicrobial Susceptibility Testing M100-S20; Approved Standard-Twentieth Edition. Wayne, Pa.: CLSI; June 2010.
The compounds of the present invention were tested for antimicrobial activity. […] The compounds were run against Escherichia coli strain ATCC25922 using a standard microdilution assay to determine minimum inhibitory concentrations (MICs). […] A “N/A” means that data is unavailable. It will be recognized by one skilled in the art that the compounds can be assessed against other bacterial organisms and that the presentation of data for activity against Escherichia coli is illustrative and in no way is intended to limit the scope of the present invention. The compounds of the present invention can be assayed against a range of other microorganisms depending upon the performance activity desired to be gathered. Furthermore, the “+”, “−”, and “N/A” representation and the selection of a cutoff value of 16 micrograms/ml is also illustrative and in no way is intended to limit the scope of the present invention.

| Compound | E. coli ATCC25922 MIC |
| --- | --- |
| C[S+]([O-])Cc1cc(CCCCN)cc(-c2cc3cn(-c4ccc(CNCCCNC(=N)N)cc4)c(=O)nc3[nH]2)c1 (stereo not shown) [Compound 2] | + (a “+” indicates that the compound has an MIC value of 16 micrograms/ml or less) |
| COCc1cc(CCCCN)cc(-c2cc3cn(-c4ccc(CNCCCNC(=N)N)cc4)c(=O)nc3[nH]2)c1 [Compound 3] | + (a “+” indicates that the compound has an MIC value of 16 micrograms/ml or less) |
| N=C(N)NCCCNCc1ccc(-n2cc3cc(-c4cc(CCCCN)cc(C5CNC5)c4)[nH]c3nc2=O)cc1 [Compound 4] | + (a “+” indicates that the compound has an MIC value of 16 micrograms/ml or less) |
| N=C(N)NCCCNCc1ccc(-n2cc3cc(-c4cccc(CCCCN)c4F)[nH]c3nc2=O)cc1 [Compound 5] | + (a “+” indicates that the compound has an MIC value of 16 micrograms/ml or less) |
| N=C(N)NCCCNCc1ccc(-n2cc3cc(-c4c(F)c(F)cc(CCCCN)c4F)[nH]c3nc2=O)cc1 [Compound 6] | + (a “+” indicates that the compound has an MIC value of 16 micrograms/ml or less) |
| N=C(N)NCCCNCc1ccc(-n2cc3cc(-c4cc(CSCCN)ccc4F)[nH]c3nc2=O)cc1 [Compound 7] | + (a “+” indicates that the compound has an MIC value of 16 micrograms/ml or less) |
| N=C(N)NCCCNCc1ccc(-n2cc3cc(-c4cc(CSCCN)cc(OC(F)(F)F)c4)[nH]c3nc2=O)cc1 [Compound 8] | + (a “+” indicates that the compound has an MIC value of 16 micrograms/ml or less) |
| Cc1cc(CCCCN)cc(-c2cc3cn(-c4ccc(CNCCCNC(=N)N)cc4)c(=O)nc3[nH]2)c1 [Compound 9] | + (a “+” indicates that the compound has an MIC value of 16 micrograms/ml or less) |
| N=C(N)NCCCNCc1ccc(-n2cc3cc(-c4c(Cl)ccc(CCCCN)c4Cl)[nH]c3nc2=O)cc1 [Compound 10] | + (a “+” indicates that the compound has an MIC value of 16 micrograms/ml or less) |
| CSCCc1cc(CCCCN)cc(-c2cc3cn(-c4ccc(CNCCCNC(=N)N)cc4)c(=O)nc3[nH]2)c1 [Compound 11] | + (a “+” indicates that the compound has an MIC value of 16 micrograms/ml or less) |
| COc1cc(CCCCN)cc(-c2cc3cn(-c4ccc(CNCCCNC(=N)N)cc4)c(=O)nc3[nH]2)c1 [Compound 14] | + (a “+” indicates that the compound has an MIC value of 16 micrograms/ml or less) |
| N=C(N)NCCCNCc1ccc(-n2cc3cc(-c4cc(CS(=O)(=O)CCN)ccc4F)[nH]c3nc2=O)cc1 [Compound 15] | + (a “+” indicates that the compound has an MIC value of 16 micrograms/ml or less) |
| N=C(N)NCCCNCc1ccc(-n2cc3cc(-c4cc(CS(=O)(=O)CCN)cc(OC(F)(F)F)c4)[nH]c3nc2=O)cc1 [Compound 16] | + (a “+” indicates that the compound has an MIC value of 16 micrograms/ml or less) |
| N=C(N)NCCCNCc1ccc(-n2cc3cc(-c4cc(CCCCN)cc(C5CC5)c4)[nH]c3nc2=O)cc1 [Compound 18] | + (a “+” indicates that the compound has an MIC value of 16 micrograms/ml or less) |
| CS(=O)(=O)CCc1cc(CCCCN)cc(-c2cc3cn(-c4ccc(CNCCCNC(=N)N)cc4)c(=O)nc3[nH]2)c1 [Compound 22] | + (a “+” indicates that the compound has an MIC value of 16 micrograms/ml or less) |
| N=C(N)NCCCNCc1ccc(-n2cc3cc(-c4cc(C[S+]([O-])CCN)ccc4F)[nH]c3nc2=O)cc1 (stereo not shown) [Compound 23] | + (a “+” indicates that the compound has an MIC value of 16 micrograms/ml or less) |
| N=C(N)NCCCNCc1ccc(-n2cc3cc(-c4cc(COCCN)ccc4F)[nH]c3nc2=O)cc1 [Compound 24] | + (a “+” indicates that the compound has an MIC value of 16 micrograms/ml or less) |
| CCNCCc1cc(CCCCN)cc(-c2cc3cn(-c4ccc(CNCCCNC(=N)N)cc4)c(=O)nc3[nH]2)c1 [Compound 26] | + (a “+” indicates that the compound has an MIC value of 16 micrograms/ml or less) |
| CC(N)CCCc1cc(-c2cc3cn(-c4ccc(CNCCCNC(=N)N)cc4)c(=O)nc3[nH]2)cc(C(F)(F)F)c1 (stereo not shown) [Compound 27] | + (a “+” indicates that the compound has an MIC value of 16 micrograms/ml or less) |
| N=C(N)NCCCNCc1ccc(-n2cc3cc(-c4cc(C(O)CCCN)cc(C(F)(F)F)c4)[nH]c3nc2=O)cc1 (stereo not shown) [Compound 29] | + (a “+” indicates that the compound has an MIC value of 16 micrograms/ml or less) |
| N=C(N)NCC(F)(F)CNCc1ccc(-n2cc3cc(-c4cc(CCCCN)cc(OC(F)(F)F)c4)[nH]c3nc2=O)cc1 [Compound 30] | + (a “+” indicates that the compound has an MIC value of 16 micrograms/ml or less) |
| CC(C)(CNCc1ccc(-n2cc3cc(-c4cc(CCCCN)cc(OC(F)(F)F)c4)[nH]c3nc2=O)cc1)CNC(=N)N [Compound 31] | + (a “+” indicates that the compound has an MIC value of 16 micrograms/ml or less) |
| C[S+]([O-])c1cc(CCCCN)cc(-c2cc3cn(-c4ccc(CNCCCNC(=N)N)cc4)c(=O)nc3[nH]2)c1 (stereo not shown) [Compound 32] | + (a “+” indicates that the compound has an MIC value of 16 micrograms/ml or less) |
| CS(=O)(=O)c1cc(CCCCN)cc(-c2cc3cn(-c4ccc(CNCCCNC(=N)N)cc4)c(=O)nc3[nH]2)c1 [Compound 33] | + (a “+” indicates that the compound has an MIC value of 16 micrograms/ml or less) |
| C[C@H](CNCc1ccc(-n2cc3cc(-c4cc(CCCCN)cc(OC(F)(F)F)c4)[nH]c3nc2=O)cc1)CNC(=N)N [Compound 34] | + (a “+” indicates that the compound has an MIC value of 16 micrograms/ml or less) |
| C[C@@H](CNCc1ccc(-n2cc3cc(-c4cc(CCCCN)cc(OC(F)(F)F)c4)[nH]c3nc2=O)cc1)CNC(=N)N [Compound 35] | + (a “+” indicates that the compound has an MIC value of 16 micrograms/ml or less) |
| N=C(N)NCCCNCc1ccc(-n2cc3cc(-c4cc(COCCN)cc(OC(F)(F)F)c4)[nH]c3nc2=O)cc1 [Compound 36] | + (a “+” indicates that the compound has an MIC value of 16 micrograms/ml or less) |
| N=C(N)NCCCNCc1ccc(-n2cc3cc(-c4cc(CCCCN)cc(F)c4Cl)[nH]c3nc2=O)cc1 [Compound 37] | + (a “+” indicates that the compound has an MIC value of 16 micrograms/ml or less) |
| N=C(N)NCCCCc1cc(F)c(Cl)c(-c2cc3cn(-c4ccc(CNCCCNC(=N)N)cc4)c(=O)nc3[nH]2)c1 [Compound 38] | + (a “+” indicates that the compound has an MIC value of 16 micrograms/ml or less) |

same assay, conditions: Escherichia coli strain ATCC25922, standard microdilution assay

| Compound | E. coli ATCC25922 MIC |
| --- | --- |
| CC(NCCCNC(=N)N)c1ccc(-n2cc3cc(-c4cc(CC5CC(CN)C5)cc(SC(F)(F)F)c4)[nH]c3nc2=O)cc1 (mixture of isomers) [Compound 401] | + (a “+” indicates that the compound has an MIC value of 16 micrograms/ml or less) |
| CC(NCCCNC(=N)N)c1ccc(-n2cc3cc(-c4cc(CC5CCC(N)C5)cc(SC(F)(F)F)c4)[nH]c3nc2=O)cc1 (mixture of isomers) [Compound 420] | + (a “+” indicates that the compound has an MIC value of 16 micrograms/ml or less) |
| CC(NCCCNC(=N)N)c1ccc(-n2cc3cc(-c4cc(CC5CCC(N)C5)cc(Cl)c4F)[nH]c3nc2=O)cc1 (mixture of isomers) [Compound 421] | + (a “+” indicates that the compound has an MIC value of 16 micrograms/ml or less) |
| CC(NCCCNC(=N)N)c1ccc(-n2cc3cc(-c4cc(COC5CC(N)C5)cc(OC(F)(F)F)c4)[nH]c3nc2=O)cc1 (mixture of isomers) [Compound 423] | + (a “+” indicates that the compound has an MIC value of 16 micrograms/ml or less) |
| N=C(N)NCCCNCc1ccc(-n2cc3cc(-c4cc(C5CCC(N)CC5)cc(C(F)(F)F)c4)[nH]c3nc2=O)cc1 (mixture of isomers) [Compound 425] | + (a “+” indicates that the compound has an MIC value of 16 micrograms/ml or less) |
| CC(NCCCNC(=N)N)c1ccc(-n2cc3cc(-c4cc(C5CCC(N)CC5)cc(C(F)(F)F)c4)[nH]c3nc2=O)cc1 (mixture of isomers) [Compound 426] | + (a “+” indicates that the compound has an MIC value of 16 micrograms/ml or less) |
| N=C(N)NCCCNCc1ccc(-n2cc3cc(-c4cc(C5CCC(CN)CC5)cc(C(F)(F)F)c4)[nH]c3nc2=O)cc1 (mixture of isomers) [Compound 429] | + (a “+” indicates that the compound has an MIC value of 16 micrograms/ml or less) |
| CC(NCCCNC(=N)N)c1ccc(-n2cc3cc(-c4cc(C5CCC(CN)CC5)cc(C(F)(F)F)c4)[nH]c3nc2=O)cc1 (mixture of isomers) [Compound 430] | + (a “+” indicates that the compound has an MIC value of 16 micrograms/ml or less) |
